Like-named read-outs stand apart in the source and are kept apart here.
Columns and labels:
[1] = system: HCV 1a Y93H replicon; assay: Cell-based HCV replicon assay (TaqMan), 1a Y93H mutant replicon; settings: EC90 = concentration for ΔCT=3.2 over baseline
Outline: (§1)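 Replicon cells seeded at 5000 cells/well with compound as 10 serial 2-fold dilutions (top 250 μM to 1 μM), 0.5% DMSO, 5% FBS, 3 days. NS5B replicon RNA quantified by multiplex TaqMan RT-PCR against GAPDH. EC50 = concentration giving ΔCT=1 over baseline; EC90 = ΔCT=3.2, from sigmoid fit.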

[2] = system: HCV 1b replicon; assay: Cell-based HCV replicon assay (TaqMan), genotype 1b replicon; settings: HCV genotype 1b replicon cells, replicon RNA by real time PCR, day 3, EC90 = concentration for ΔCT=3.2 over baseline
Experimental: Measurement of inhibition by compounds of the present invention was performed using the HCV replicon system. Several different replicons encoding different HCV genotypes or mutations were used. In addition, potency measurements were made using different formats of the replicon assay, including different ways of measurements and different plating formats. See Jan M. Vrolijk et al., A replicons-based bioassay for the measurement of interferons in patients with chronic hepatitis C, 110 J. VIROLOGICAL METHODS 201 (2003); Steven S. Carroll et al., Inhibition of Hepatitis C Virus RNA Replication by 2′-Modified Nucleoside Analogs, 278(14) J. BIOLOGICAL CHEMISTRY 11979 (2003). However, the underlying principles are common to all of these determinations, and are outlined below.
TaqMan®-Based Assay Protocol:
Compounds of the present invention were assayed for cell-based anti-HCV activity using the following protocol. Replicon cells were seeded at 5000 cells/well in 96-well collagen I-coated Nunc plates in the presence of the test compound. Various concentrations of test compound, typically in 10 serial 2-fold dilutions, were added to the assay mixture, with the starting concentration ranging from 250 μM to 1 μM. The final concentration of DMSO was 0.5%, fetal bovine serum was 5%, in the assay media. Cells were harvested on day 3 by the addition of 1× cell lysis buffer (Ambion cat #8721). The replicon RNA level was measured using real time PCR (TaqMan® assay). The amplicon was located in 5B. The PCR primers were: 5B.2F, ATGGACAGGCGCCCTGA (SEQ. ID NO. 1); 5B.2R, […] (SEQ. ID NO. 2); the probe sequence was FAM-labeled CACGCCATGCGCTGCGG (SEQ. ID NO. 3). GAPDH RNA was used as endogenous control and was amplified in the same reaction as NS5B (multiplex PCR) using primers and VIC-labeled probe recommended by the manufacturer (PE Applied Biosystem). The real-time […] reactions were run on ABI PRISM 7900HT Sequence Detection System using the following program: 48° C. for 30 minutes, 95° C. for 10 minutes, 40 cycles of 95° C. for 15 sec, 60° C. for 1 minute. The ΔCT values (CT5B-CTGAPDH) were plotted against the concentration of test compound and fitted to the sigmoid dose-response model using XLfit4 (MDL). EC50 was defined as the concentration of inhibitor necessary to achieve ΔCT=1 over the projected baseline; EC90 the concentration necessary to achieve ΔCT=3.2 over the baseline. Alternatively, to quantitate the absolute amount of replicon RNA, a standard curve was established by including serially diluted T7 transcripts of replicon RNA in the Taqman assay. All TaqMan® reagents were from PE Applied Biosystems. Such an assay procedure was described in detail in e.g. Malcolm et al., Antimicrobial Agents and Chemotherapy 50: 1013-1020 (2006).
HCV replicon EC50 assay data for various replicons and mutants was calculated for selected compounds of the present invention using this method and is provided in the tables above herein.

[3] = system: HCV 2b replicon; assay: Cell-based HCV replicon assay (TaqMan), genotype 2b replicon; settings: Hepatitis C virus, 72 h, read-out: 2b EC90, HCV genotype 2b replicon cells, replicon RNA by real time PCR, day 3; EC90 = concentration for ΔCT=3.2 over baseline
Outline: as §1

[4] = system: HCV 1a replicon; assay: Cell-based HCV replicon assay (TaqMan), genotype 1a replicon; settings: HCV genotype 1a replicon cells, replicon RNA by real time PCR, day 3, EC90 = concentration for ΔCT=3.2 over baseline
Outline: as §1

[5] = Hepatitis C virus, 72 h, read-out: 1a Y93H EC90, HCV 1a Y93H mutant replicon cells, replicon RNA by real time PCR, day 3

COC(=O)N[C@@H](CC1CC1)C(=O)N1C[Si](C)(C)C[C@H]1c1nc2ccc3cc(-c4ccc(-c5cnc([C@@H]6CCCN6C(=O)[C@@H](NC(=O)OC)C(C)C)[nH]5)cc4)ccc3c2[nH]1 [Compound 77]
EC90 [1, 5]: > 1000 nM | EC90 ([2]; Hepatitis C virus, 72 h): 0.03 nM | EC90 [3]: 221 nM | EC90 ([4]; Hepatitis C virus, 72 h): 0.56 nM

CCN(CC)[C@H](C(=O)N1C[Si](C)(C)C[C@H]1c1nc2ccc3cc(-c4ccc(-c5cnc([C@@H]6CCCN6C(=O)[C@@H](NC(=O)OC)C(C)C)[nH]5)cc4)ccc3c2[nH]1)c1ccccc1 [Compound 78]
EC90 [1, 5]: 514 nM | EC90 ([2]; Hepatitis C virus, 72 h): 0.03 nM | EC90 [3]: 6.5 nM | EC90 ([4]; Hepatitis C virus, 72 h): 0.14 nM

COC(=O)N[C@H](C(=O)N1C[Si](C)(C)C[C@H]1c1nc(Cl)c(-c2ccc(-c3ccc4c(ccc5nc([C@@H]6CCCN6C(=O)[C@@H](NC(=O)OC)C(C)C)[nH]c54)c3)cc2)[nH]1)C(C)C [Compound 96]
EC90 [1, 5]: 368 nM | EC90 ([2]; Hepatitis C virus, 72 h): 0.69 nM | EC90 [3]: 263 nM | EC90 ([4]; Hepatitis C virus, 72 h): 0.24 nM

COC(=O)N[C@H](C(=O)N1C[Si](C)(C)C[C@H]1c1nc2ccc3cc(-c4ccc(-c5cnc([C@@H]6C[C@H]7C[C@H]7N6C(=O)[C@@H](NC(=O)OC)C(C)C)[nH]5)cc4)ccc3c2[nH]1)C(C)C [Compound 105]
EC90 ([1]; read-out: 1a Y93H EC90, HCV 1a Y93H mutant replicon cells, replicon RNA by real time PCR, day 3): 605 nM | EC90 [2]: 0.02 nM | EC90 [3]: 301 nM | EC90 [4]: 0.26 nM

COC(=O)N[C@H](C(=O)N1C[Si](C)(C)C[C@H]1c1nc2ccc3cc(-c4ccc(-c5nc(Cl)c([C@@H]6C[C@H]7C[C@H]7N6C(=O)[C@@H](NC(=O)OC)C(C)C)[nH]5)cc4)ccc3c2[nH]1)C(C)C [Compound 108]
EC90 [1, 5]: 151 nM | EC90 ([2]; Hepatitis C virus, 72 h): 0.02 nM | EC90 [3]: 543 nM | EC90 ([4]; Hepatitis C virus, 72 h): 0.04 nM

COC(=O)N[C@H](C(=O)N1CCC[C@H]1c1ncc(-c2ccc3cc(-c4ccc5c(ccc6nc([C@@H]7C[Si](C)(C)CN7C(=O)[C@@H](NC(=O)OC)C(C)C)[nH]c65)c4)ccc3c2)[nH]1)C(C)C [Compound 112]
EC90 [1, 5]: > 100 nM | EC90 ([2]; Hepatitis C virus, 72 h): > 1 nM | EC90 [3]: > 100 nM | EC90 ([4]; Hepatitis C virus, 72 h): 0.046 nM

COC(=O)N[C@H](C(=O)N1CCC[C@H]1c1ncc(-c2ccc3cc(-c4ccc5c(ccc6nc([C@@H]7C[Si](C)(C)CN7C(=O)[C@@H](NC(=O)OC)C7CC7)[nH]c65)c4)ccc3c2)[nH]1)C1CC1 [Compound 114]
EC90 [1, 5]: > 100 nM | EC90 ([2]; Hepatitis C virus, 72 h): > 1 nM | EC90 [3]: > 100 nM | EC90 ([4]; Hepatitis C virus, 72 h): 0.06 nM

COC(=O)N[C@@H](C(=O)N1CCC[C@@H]1c1ncc(-c2ccc3cc(-c4ccc5c(ccc6nc([C@H]7C[Si](C)(C)CN7C(=O)OC(C)(C)C)[nH]c65)c4)ccc3c2)[nH]1)C(C)C [Compound 116]
EC90 [1, 5]: > 100 nM | EC90 ([2]; Hepatitis C virus, 72 h): > 1 nM | EC90 [3]: > 100 nM | EC90 ([4]; Hepatitis C virus, 72 h): > 1 nM

COC(=O)NC(C(=O)N1C[Si](C)(C)C[C@H]1c1nc2ccc3cc(-c4ccc5cc(-c6cnc([C@@H]7CCCN7C(=O)[C@H](NC(=O)OC)C(C)C)[nH]6)ccc5c4)ccc3c2[nH]1)[C@@H](C)OC (stereo partly shown) [Compound 117]
EC90 [1, 5]: > 100 nM | EC90 ([2]; Hepatitis C virus, 72 h): > 1 nM | EC90 [3]: > 100 nM | EC90 ([4]; Hepatitis C virus, 72 h): 0.039 nM

COC(=O)N[C@H](C(=O)N1C[Si](C)(C)C[C@@H]1c1nc2ccc3cc(-c4ccc5cc(-c6cnc([C@H]7CCCN7C(=O)[C@H](NC(=O)OC)C(C)C)[nH]6)ccc5c4)ccc3c2[nH]1)C1CCOCC1 [Compound 118]
EC90 [1, 5]: > 100 nM | EC90 ([2]; Hepatitis C virus, 72 h): > 1 nM | EC90 [3]: > 100 nM | EC90 ([4]; Hepatitis C virus, 72 h): 0.023 nM
